Laboratory results: PubChem BioAssay (NCI)
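These data come from cells grown in 96-well plates and exposed to compound for 48 hours at five concentrations. GI50: concentration for 50% inhibition of growth. TGI is the concentration that stops growth completely.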

Assays:
Assay in all cases: growth of human tumour cells (NCI), 48 h
BT-549 breast = test system: BT-549 breast
HL-60(TB) leukemia = test system: HL-60(TB) leukemia
K-562 leukemia = test system: K-562 leukemia
M14 melanoma = test system: M14 melanoma
MOLT-4 leukemia = test system: MOLT-4 leukemia
NCI-H226 lung = test system: NCI-H226 lung
NCI/ADR-RES ovarian = test system: NCI/ADR-RES ovarian
RXF 393 renal = test system: RXF 393 renal
SNB-19 CNS = test system: SNB-19 CNS
UO-31 renal = test system: UO-31 renal

Row | SMILES | TGI (BT-549 breast) [µM] | TGI (HL-60(TB) leukemia) [µM] | TGI (K-562 leukemia) [µM] | TGI (M14 melanoma) [µM] | TGI (MOLT-4 leukemia) [µM] | TGI (NCI-H226 lung) [µM] | TGI (NCI/ADR-RES ovarian) [µM] | TGI (RXF 393 renal) [µM] | TGI (SNB-19 CNS) [µM] | TGI (UO-31 renal) [µM] | GI50 (HL-60(TB) leukemia) [pM] | GI50 (K-562 leukemia) [pM] | GI50 (MOLT-4 leukemia) [pM] | GI50 (NCI-H226 lung) [pM] | GI50 (NCI/ADR-RES ovarian) [µM] | GI50 (RXF 393 renal) [pM] | GI50 (SNB-19 CNS) [pM] | GI50 (UO-31 renal) [pM]
1 | O=C(Oc1ccccn1)c1cc2cc(CCl)ccc2oc1=O | 49.7 | > 100 | > 100 | > 100 | > 100 | > 100 | 75.5 | 41.3 | 71.2 | > 100 | – | – | – | – | – | – | – | –
2 | CC(=O)c1[nH]c(NCc2ccccc2)c(C(=S)Nc2ccccc2)c1N | 64.7 | 35.3 | 76.1 | 33.7 | > 100 | 40.2 | > 100 | 35.6 | > 100 | 6.34 | – | – | – | – | – | – | – | –
3 | N#Cc1c(-c2ccc(Cl)cc2Cl)nc2[nH][nH]c(=S)n2c1=O | > 100 | > 100 | – | > 100 | > 100 | > 100 | > 100 | > 100 | > 100 | > 100 | – | – | – | – | – | – | – | –
4 | O=C1CCCC1CN1CCCC1 (stereo unspecified) | 3.09 | 3.02 | 1.18 | 6.74 | 1.07 | > 100 | 37.9 | – | > 100 | 17.6 | – | – | – | – | – | – | – | –
5 | COC(=O)C1=C(C(=O)NNc2ccccc2)N(c2cccnc2Cl)C(c2ccccc2)=CC1c1ccccc1 (stereo unspecified) | > 100 | > 100 | > 100 | > 100 | 67.2 | > 100 | – | – | > 100 | – | – | – | – | – | – | – | – | –
6 | CC1CCC(C(C)C)C(OC(=O)NCn2cc(-c3ccccc3)nn2)C1 (stereo unspecified) | > 100 | > 100 | > 100 | > 100 | – | > 100 | > 100 | – | > 100 | – | – | – | – | – | – | – | – | –
7 | CC1(CCOCc2ccccc2)NC(=O)NC1=O (stereo unspecified) | > 100 | – | > 100 | > 100 | > 100 | > 100 | > 100 | > 100 | > 100 | > 100 | – | – | – | – | – | – | – | –
8 | CN(C)C1(N(C)C)Oc2c(c(=O)n(C)c(=O)n2C)C(c2ccccc2)C1(F)F (stereo unspecified) | > 100 | – | > 100 | > 100 | > 100 | > 100 | > 100 | > 100 | > 100 | > 100 | – | – | – | – | – | – | – | –
9 | Cn1c(=O)c2c(nc(Cc3ccccc3)n2CC(=O)O)n(C)c1=O | > 100 | – | – | > 100 | > 100 | > 100 | > 100 | > 100 | > 100 | > 100 | – | – | – | – | – | – | – | –
10 | CCC(/C=C/C1OC(=O)C=CC1C)=C\C(C)C/C=C/C(C)=C/C(C)C(=O)C(C)C(O)C(C)C/C(C)=C/C(=O)O (stereo unspecified) | – | – | – | 3.68e-05 | – | – | 4.15 | 3.56 | 13.2 | – | < 1 | < 1 | 2.33 | 1.72 | 0.701 | < 1 | 25.3 | 31.2
11 | COC(=O)c1cc2ccc(N)nc2[nH]c1=O | > 100 | – | – | > 100 | – | > 100 | > 100 | > 100 | > 100 | > 100 | – | – | – | – | – | – | – | –
12 | CC(O)C1(CNc2cc(Cl)nc(N)n2)CCC1 (stereo unspecified) | > 100 | > 100 | > 100 | – | > 100 | > 100 | > 100 | > 100 | > 100 | > 100 | – | – | – | – | – | – | – | –
13 | O=c1cnn(C/C=C/CO)c(=O)[nH]1 | > 100 | > 100 | > 100 | > 100 | – | > 100 | > 100 | > 100 | > 100 | > 100 | – | – | – | – | – | – | – | –
14 | CSc1nc(Nc2cccc(C(F)(F)F)c2)c2c(N)nn(C)c2n1 | > 100 | – | > 100 | > 100 | > 100 | > 100 | > 100 | > 100 | > 100 | > 100 | – | – | – | – | – | – | – | –
15 | CCCCNC(=S)Nc1nc(C(=O)NNC(=S)Nc2ccccc2)cs1 | > 100 | – | – | > 100 | > 100 | > 100 | > 100 | – | > 100 | > 100 | – | – | – | – | – | – | – | –
16 | N#Cc1c(N)n(-c2cccc(C(=O)O)c2)c(=O)c2cc([N+](=O)[O-])ccc12 | > 100 | > 100 | > 100 | – | – | > 100 | > 100 | – | > 100 | > 100 | – | – | – | – | – | – | – | –
17 | OC1C#CCSCC#C/C=C\1 (stereo unspecified) | > 100 | 71.8 | 75.9 | > 100 | – | > 100 | 7.72 | 68.1 | > 100 | > 100 | – | – | – | – | – | – | – | –
18 | CC12CC(c3ccccc3O1)C(C(=O)Nc1ccc(Cl)cc1Cl)C(=O)N2 (stereo unspecified) | > 100 | 21.2 | > 100 | 31.9 | 54.5 | – | > 100 | – | > 100 | 37.7 | – | – | – | – | – | – | – | –
19 | Oc1[nH]c2ccccc2c1N=NC(=S)Nc1cccc(Cl)c1 | – | 49.6 | 50 | 24.7 | 10.8 | 55.2 | 8 | 48.7 | > 100 | > 100 | – | – | – | – | – | – | – | –
20 | O=C(/C=C/c1cc2ccccc2o1)N1CCN(c2ccccn2)CC1 | > 100 | > 100 | > 100 | > 100 | > 100 | – | > 100 | > 100 | > 100 | > 100 | – | – | – | – | – | – | – | –
21 | COC(=O)C(Cc1c[nH]c2ccccc12)NP(=O)(O)OCC1OC(n2cc(I)c(=O)[nH]c2=O)CC1O (stereo unspecified) | > 100 | > 100 | > 100 | > 100 | > 100 | > 100 | > 100 | – | > 100 | > 100 | – | – | – | – | – | – | – | –
22 | Cn1ccc(C(=O)NCCN(CCNC(=O)c2ccn(C)c(=O)c2O)CCNC(=O)c2cccc(=O)n2O)c(O)c1=O | > 100 | > 100 | > 100 | > 100 | – | > 100 | > 100 | > 100 | > 100 | > 100 | – | – | – | – | – | – | – | –
23 | O=[N+]([O-])c1ccc2c(c1)C1=C(CO2)Cc2ccccc2O1 | 61.9 | – | > 100 | 37.4 | – | > 100 | > 100 | – | – | 28.1 | – | – | – | – | – | – | – | –
24 | O=C1/C(=C/c2ccccc2S)N=C(c2ccccc2)N1c1nc2c(Cl)cc(Cl)cc2s1 | > 100 | 42.6 | 81.5 | 66.2 | 30.2 | – | 84.9 | 58 | 84.5 | 48.1 | – | – | – | – | – | – | – | –
